Tests used:
Type in all cases: in vivo
[1] = system: rat models with Alzheimer's disease; assay: Extrapolation escape (EE) test, scopolamine-induced Alzheimer's disease model; conditions: 3 min test; scopolamine 1 mg/kg i.p. 27 days; donepezil 1 mg/kg i.p. 10 days, peptide (LYS) 0.1 mg/kg i.n. 10 days
Description: (§1) White random-bred adult male rats weighing 200-240 g were used. Groups of 7 animals per group were formed. 1st group—control, 2nd—pathology, 3rd—comparator drug, 4th-6th—neuropeptides.
(§2) Scopolamine was administered i.p. to the animals in all groups except for the control at a 1 mg/kg dose daily, once a day for 27 days. From the 28th day on, the animals in groups 2 and 3 were administered the comparator drug and the claimed preparation respectively over the course of 10 days. The drugs were administered daily, once a day.
(§3) The tetrapeptides were administered i.n at a 0.1 mg/kg dose. The animals in the pathology group received 0.9% sodium chloride solution i.n. and i.p. as a placebo.
(§4) The OF and EE tests were conducted on the 1st day, PST—on the 2nd day, CPAR—on the 1st and 10th day post treatment with the preparations. […] The antiamnesic action (AA) in the CPAR test was calculated using Butler's formula [K. S. Radionova. […] After that, the animals were removed from the experiment by administering a narcotic, followed by decapitation. The brain was extracted and weighed, and the brain weight coefficient (BWC) was calculated. Immediately after extraction, the brain was frozen in liquid nitrogen and used in subsequent biochemical and histochemical studies. Glucose levels in whole arterial (common carotid artery) and venous (venous cerebral sinus) blood were determined by the glucose oxidase test, the difference in the arterial-venous glucose content was calculated (glucose consumption marker). The levels of average weight molecules—the toxic products of cell biodegradation damaged during the disease (nucleoside derivatives, peptoids, glucuronic acid salts, etc.) in the blood serum (AWM) were calculated [A. N. Kovalevsky. Notes on the screening method of determination average weight molecules/A. N. Kovalevsky, O. Ye. Nifantiev//Lab. Science. […] 35-39].

[2] = system: rat models with Alzheimer's disease; assay: Conditioned passive avoidance reflex (CPAR) test, scopolamine-induced Alzheimer's disease model; conditions: for AA less than in the tetrapeptide (LYS) group: donepezil 1 mg/kg; for number of animals who reached the CPAR learning criterium: % of total trained animals, criterium at least 180 sec in light area
Description: as §1, §2, §3, §4

[3] = system: rat models with AD; assay: Porsolt swim test (PST), scopolamine-induced Alzheimer's disease model; conditions: AD rats; donepezil 1 mg/kg i.p., tetrapeptide (LYS) 0.1 mg/kg i.n.
Description: as §1, §2, §3, §4

For `COc1cc2c(cc1OC)C(=O)C(CC1CCN(Cc3ccccc3)CC1)C2` (centres unmarked) [donepezil, reference compound], the “% of animals succeeded” value [1] was 100%, the Escape time [1] was 18.86 ± 3.57 s and the “AA less than in the tetrapeptide (LYS) group” value ([2]; 10th day) was 1.9 times. For the same compound, the “Latent period of entry into the dark area of the CPAR device, In 24 hrs.” value ([2]; In 24 hrs., scopolamine + donepezil 1 mg/kg or tetrapeptide (LYS) 0.1 mg/kg i.n.) was 93.29 ± 26.11 s, the “Latent period of entry into the dark area of the CPAR device, In 10 days” value ([2]; In 10 days, scopolamine + donepezil 1 mg/kg or tetrapeptide (LYS) 0.1 mg/kg i.n.) was 69.43 ± 11.10^ sec and the “Latent period of entry into the dark area of the CPAR device, Initial” value ([2]; Initial, scopolamine + donepezil 1 mg/kg or tetrapeptide (LYS) 0.1 mg/kg i.n.) was 24.00 ± 6.23 s. For the same compound, the “number of animals who reached the CPAR learning criterium” value ([2]; first day) was 28.6%, the “AA less than in the tetrapeptide (LYS) group” value ([2]; first day) was 2.9 times and the “number of animals who reached the CPAR learning criterium” value ([2]; tenth day) was “goes down to the level of the pathology group”. For the same compound, the “Latent period of immobilization” value [3] was 69.43 ± 12.64 s and the “Number of immobilization acts” value [3] was 9.29 ± 1.66.
